For the test, the target named is T1, CFTR (Homo sapiens, UniProt P13569, DEL508-508).
T1 construct: Primary CF airway epithelial cells were obtained from the UNC Cystic Fibrosis Tissue Procurement and Cell Culture Core; host or cells: primary CF airway epithelial cells, differentiated at the air-liquid interface
Description: Equivalent current assay in primary CF airway epithelial cells (NAUC, combination with 1st site corrector FDL169 or VX-809). Format: cell-based. The following applies: 37° C., 24 h.

Where [1] appears, read: test compound 1 μM in combination with 1st site corrector VX-809 (3 μM).
The mark [2] stands for this setting: test compound 3 μM in combination with 1st site corrector VX-809 (3 μM).
[3] abbreviates: test compound 10 μM in combination with 1st site corrector VX-809 (3 μM).
[4] abbreviates: test compound 1 μM in combination with 1st site corrector FDL169 (3 μM).
Where [5] appears, read: test compound 3 μM in combination with 1st site corrector FDL169 (3 μM).
Where [6] appears, read: test compound 10 μM in combination with 1st site corrector FDL169 (3 μM).

T1 sequence (P13569 with tags, fused parts or gaps DEL508-508): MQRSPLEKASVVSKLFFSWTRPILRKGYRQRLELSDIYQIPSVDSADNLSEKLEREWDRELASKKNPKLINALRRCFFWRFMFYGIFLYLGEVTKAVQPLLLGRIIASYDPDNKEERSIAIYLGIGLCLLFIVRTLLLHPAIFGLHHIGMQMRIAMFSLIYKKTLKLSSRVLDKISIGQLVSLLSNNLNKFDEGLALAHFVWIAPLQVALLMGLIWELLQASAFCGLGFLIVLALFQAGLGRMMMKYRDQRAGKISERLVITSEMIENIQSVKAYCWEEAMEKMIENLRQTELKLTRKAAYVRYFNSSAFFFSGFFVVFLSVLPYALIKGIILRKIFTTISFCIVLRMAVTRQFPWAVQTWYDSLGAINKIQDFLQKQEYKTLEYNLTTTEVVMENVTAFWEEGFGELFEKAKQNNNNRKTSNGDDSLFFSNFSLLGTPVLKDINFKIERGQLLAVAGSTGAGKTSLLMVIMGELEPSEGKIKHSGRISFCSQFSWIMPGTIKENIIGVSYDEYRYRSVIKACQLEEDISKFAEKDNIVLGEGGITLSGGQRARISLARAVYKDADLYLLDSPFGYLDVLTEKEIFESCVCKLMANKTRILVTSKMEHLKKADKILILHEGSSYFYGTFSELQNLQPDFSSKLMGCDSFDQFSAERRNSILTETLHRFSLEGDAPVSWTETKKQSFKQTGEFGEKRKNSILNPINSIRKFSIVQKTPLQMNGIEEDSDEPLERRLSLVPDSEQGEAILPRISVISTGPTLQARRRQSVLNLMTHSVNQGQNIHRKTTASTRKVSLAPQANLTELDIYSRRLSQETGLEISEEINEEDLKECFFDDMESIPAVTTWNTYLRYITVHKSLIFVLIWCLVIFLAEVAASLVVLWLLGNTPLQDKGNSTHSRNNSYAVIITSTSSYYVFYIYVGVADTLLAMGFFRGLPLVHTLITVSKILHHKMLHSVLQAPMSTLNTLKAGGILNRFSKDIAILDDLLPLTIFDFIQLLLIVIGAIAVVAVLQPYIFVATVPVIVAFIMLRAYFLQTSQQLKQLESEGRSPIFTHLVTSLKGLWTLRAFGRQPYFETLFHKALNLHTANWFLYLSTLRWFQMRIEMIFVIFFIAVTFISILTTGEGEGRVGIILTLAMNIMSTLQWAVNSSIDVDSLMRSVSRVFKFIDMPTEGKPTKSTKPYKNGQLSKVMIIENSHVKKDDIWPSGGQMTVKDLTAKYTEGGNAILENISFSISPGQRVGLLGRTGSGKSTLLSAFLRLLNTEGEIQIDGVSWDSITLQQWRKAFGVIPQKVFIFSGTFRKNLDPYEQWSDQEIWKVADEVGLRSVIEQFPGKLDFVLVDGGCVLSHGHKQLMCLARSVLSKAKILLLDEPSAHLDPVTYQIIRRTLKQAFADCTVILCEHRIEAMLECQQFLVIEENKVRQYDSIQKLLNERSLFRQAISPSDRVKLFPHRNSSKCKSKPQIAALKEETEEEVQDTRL

With `O=C(Nc1cccc2nccnc12)[C@H]1[C@H]2CC(F)(F)CN2[C@]2(C(=O)Nc3c(Cl)cc(Cl)cc32)[C@H]1C(=O)O` [Example 126], the “Nauc @ 1 μM” value under setting [1] is “++ (NAUC “++” refers to an observed NAUC 170-140% of positive control)”. The “Nauc @ 3 μM” value under setting [2] was “++ (NAUC “++” refers to an observed NAUC 170-140% of positive control)”.
For `O=C(Nc1cccc2cccnc12)[C@H]1[C@H]2CC(F)(F)CN2[C@]2(C(=O)Nc3c(Cl)cc(Cl)cc32)[C@H]1C(=O)O` [Example 127], under setting [1], the “Nauc @ 1 μM” value is “+ (NAUC “+” refers to an observed NAUC <140% of positive control)”. In addition, under setting [2], the “Nauc @ 3 μM” value was “+ (NAUC “+” refers to an observed NAUC <140% of positive control)”.
Turning to `O=C(Nc1ccc2scnc2c1)[C@H]1[C@H]2CC(F)(F)CN2[C@]2(C(=O)Nc3c(Cl)cc(Cl)cc32)[C@H]1C(=O)O` [Example 128], the “Nauc @ 1 μM” value under setting [1] is reported as “+ (NAUC “+” refers to an observed NAUC <140% of positive control)”. Moreover, the “Nauc @ 3 μM” value under setting [2] is “+ (NAUC “+” refers to an observed NAUC <140% of positive control)”.
With `O=C(Nc1cccc2c1OCCO2)[C@H]1[C@H]2CC(F)(F)CN2[C@]2(C(=O)Nc3c(Cl)cc(Cl)cc32)[C@H]1C(=O)O` [Example 129], under setting [1], the “Nauc @ 1 μM” value is “+ (NAUC “+” refers to an observed NAUC <140% of positive control)”. The “Nauc @ 3 μM” value under setting [2] is listed as “+ (NAUC “+” refers to an observed NAUC <140% of positive control)”.
With `O=C(Nc1n[nH]c2ccc(F)cc12)[C@H]1[C@H]2CC(F)(F)CN2[C@]2(C(=O)Nc3c(Cl)cc(Cl)cc32)[C@H]1C(=O)O` [Example 130], the “Nauc @ 1 μM” value under setting [1] is listed as “+ (NAUC “+” refers to an observed NAUC <140% of positive control)”. Besides, the “Nauc @ 3 μM” value under setting [2] is recorded as “+ (NAUC “+” refers to an observed NAUC <140% of positive control)”.
Take `O=C(Nc1cccc2c1CCCC2)[C@H]1[C@H]2CC(F)(F)CN2[C@]2(C(=O)Nc3c(Cl)cc(Cl)cc32)[C@H]1C(=O)O` [Example 131]: the “Nauc @ 1 μM” value under setting [1] is “+++ (NAUC “+++” refers to an observed NAUC>170% of positive control)”. Moreover, the “Nauc @ 3 μM” value under setting [2] was “+++ (NAUC “+++” refers to an observed NAUC>170% of positive control)”.
With `COCCN(C(=O)[C@H]1[C@H]2CC(F)(F)CN2[C@]2(C(=O)Nc3c(Cl)cc(Cl)cc32)[C@H]1C(=O)O)c1cc(Cl)cc(Cl)c1` [Example 132], under setting [1], the “Nauc @ 1 μM” value is “+++ (NAUC “+++” refers to an observed NAUC>170% of positive control)”. For the same compound, under setting [2], the “Nauc @ 3 μM” value is on record as “+++ (NAUC “+++” refers to an observed NAUC>170% of positive control)”. In addition, under setting [3], the “Nauc @ 10 μM” value is recorded as “+++ (NAUC “+++” refers to an observed NAUC>170% of positive control)”.
Regarding `COc1cc(C(F)(F)F)cc(N(C)C(=O)[C@H]2[C@H]3CC(F)(F)CN3[C@]3(C(=O)Nc4c(Cl)cc(Cl)cc43)[C@H]2C(=O)O)n1` [Example 133], the “Nauc @ 1 μM” value under setting [1] is on record as “+++ (NAUC “+++” refers to an observed NAUC>170% of positive control)”. Besides, the “Nauc @ 3 μM” value under setting [2] is “+++ (NAUC “+++” refers to an observed NAUC>170% of positive control)”. Also, the “Nauc @ 10 μM” value under setting [3] is “+++ (NAUC “+++” refers to an observed NAUC>170% of positive control)”.
For `O=C(Nc1cnc(-c2ccccc2)cn1)[C@H]1[C@H]2CC(F)(F)CN2[C@]2(C(=O)Nc3c(Cl)cc(Cl)cc32)[C@H]1C(=O)O` [Example 134], the “Nauc @ 1 μM” value under setting [1] is “+ (NAUC “+” refers to an observed NAUC <140% of positive control)”. The “Nauc @ 3 μM” value under setting [2] is given as “+ (NAUC “+” refers to an observed NAUC <140% of positive control)”.
`O=C(Nc1nccc2cccnc12)[C@H]1[C@H]2CC(F)(F)CN2[C@]2(C(=O)Nc3c(Cl)cc(Cl)cc32)[C@H]1C(=O)O` [Example 135]: the “Nauc @ 1 μM” value under setting [1] was “+ (NAUC “+” refers to an observed NAUC <140% of positive control)”. Moreover, the “Nauc @ 3 μM” value under setting [2] was “+ (NAUC “+” refers to an observed NAUC <140% of positive control)”. Further, the “Nauc @ 10 μM” value under setting [3] is given as “+ (NAUC “+” refers to an observed NAUC <140% of positive control)”.
Take `Cn1ccc2ccc(NC(=O)[C@H]3[C@H]4CC(F)(F)CN4[C@]4(C(=O)Nc5c(Cl)cc(Cl)cc54)[C@H]3C(=O)O)cc21` [Example 136]: the “Nauc @ 1 μM” value under setting [4] is recorded as “+ (NAUC “+” refers to an observed NAUC <140% of positive control)”. In addition, the “Nauc @ 3 μM” value under setting [5] is given as “+ (NAUC “+” refers to an observed NAUC <140% of positive control)”.
For the compound `Cn1ccc2cc(NC(=O)[C@H]3[C@H]4CC(F)(F)CN4[C@]4(C(=O)Nc5c(Cl)cc(Cl)cc54)[C@H]3C(=O)O)ccc21` [Example 137], the “Nauc @ 1 μM” value under setting [4] was “+ (NAUC “+” refers to an observed NAUC <140% of positive control)”. Under setting [5], the “Nauc @ 3 μM” value was “+ (NAUC “+” refers to an observed NAUC <140% of positive control)”.
`Cn1ncc2cc(NC(=O)[C@H]3[C@H]4CC(F)(F)CN4[C@]4(C(=O)Nc5c(Cl)cc(Cl)cc54)[C@H]3C(=O)O)ccc21` [Example 138]: the “Nauc @ 1 μM” value under setting [4] was “+ (NAUC “+” refers to an observed NAUC <140% of positive control)”. Besides, the “Nauc @ 3 μM” value under setting [5] is on record as “+ (NAUC “+” refers to an observed NAUC <140% of positive control)”.
For `Cn1c(NC(=O)[C@H]2[C@H]3CC(F)(F)CN3[C@]3(C(=O)Nc4c(Cl)cc(Cl)cc43)[C@H]2C(=O)O)nc2ccccc21` [Example 139], under setting [4], the “Nauc @ 1 μM” value is recorded as “+ (NAUC “+” refers to an observed NAUC <140% of positive control)”. Moreover, under setting [5], the “Nauc @ 3 μM” value is “+ (NAUC “+” refers to an observed NAUC <140% of positive control)”.
Consider `O=C(Nc1ccc2ncncc2c1)[C@H]1[C@H]2CC(F)(F)CN2[C@]2(C(=O)Nc3c(Cl)cc(Cl)cc32)[C@H]1C(=O)O` [Example 140], for which the “Nauc @ 1 μM” value under setting [4] was “+ (NAUC “+” refers to an observed NAUC <140% of positive control)”. Also, the “Nauc @ 3 μM” value under setting [5] is on record as “+ (NAUC “+” refers to an observed NAUC <140% of positive control)”.
In the case of `Cn1ccc2c(NC(=O)[C@H]3[C@H]4CC(F)(F)CN4[C@]4(C(=O)Nc5c(Cl)cc(Cl)cc54)[C@H]3C(=O)O)cccc21` [Example 141], under setting [4], the “Nauc @ 1 μM” value is reported as “+ (NAUC “+” refers to an observed NAUC <140% of positive control)”. The “Nauc @ 3 μM” value under setting [5] is given as “+ (NAUC “+” refers to an observed NAUC <140% of positive control)”.
`Cn1cnc(NC(=O)[C@H]2[C@H]3CC(F)(F)CN3[C@]3(C(=O)Nc4c(Cl)cc(Cl)cc43)[C@H]2C(=O)O)c1` [Example 142]: the “Nauc @ 1 μM” value under setting [4] is “+ (NAUC “+” refers to an observed NAUC <140% of positive control)”. The “Nauc @ 3 μM” value under setting [5] is “+ (NAUC “+” refers to an observed NAUC <140% of positive control)”.
On to `Cn1cc2cc(NC(=O)[C@H]3[C@H]4CC(F)(F)CN4[C@]4(C(=O)Nc5c(Cl)cc(Cl)cc54)[C@H]3C(=O)O)ccc2n1` [Example 143], for which the “Nauc @ 1 μM” value under setting [4] is “+ (NAUC “+” refers to an observed NAUC <140% of positive control)”. Further, the “Nauc @ 3 μM” value under setting [5] was “+ (NAUC “+” refers to an observed NAUC <140% of positive control)”.
With `O=C(Nc1ncnc2ccccc12)[C@H]1[C@H]2CC(F)(F)CN2[C@]2(C(=O)Nc3c(Cl)cc(Cl)cc32)[C@H]1C(=O)O` [Example 144], the “Nauc @ 1 μM” value under setting [4] is “+ (NAUC “+” refers to an observed NAUC <140% of positive control)”. Moreover, under setting [5], the “Nauc @ 3 μM” value is listed as “+ (NAUC “+” refers to an observed NAUC <140% of positive control)”.
As for `O=C(O)[C@H]1[C@@H](C(=O)N(CC2CCCC2)c2cc(Cl)cc(Cl)c2)[C@H]2CC(F)(F)CN2[C@]12C(=O)Nc1c(Cl)cc(Cl)cc12` [Example 145], the “Nauc @ 1 μM” value under setting [4] is listed as “+++ (NAUC “+++” refers to an observed NAUC>170% of positive control)”. For the same compound, the “Nauc @ 3 μM” value under setting [5] is “+++ (NAUC “+++” refers to an observed NAUC>170% of positive control)”. For the same compound, the “Nauc @ 10 μM” value under setting [6] was “+++ (NAUC “+++” refers to an observed NAUC>170% of positive control)”.
Regarding `Cn1cnc2cc(NC(=O)[C@H]3[C@H]4CC(F)(F)CN4[C@]4(C(=O)Nc5c(Cl)cc(Cl)cc54)[C@H]3C(=O)O)ccc21` [Example 146], the “Nauc @ 1 μM” value under setting [4] is recorded as “+ (NAUC “+” refers to an observed NAUC <140% of positive control)”. Further, the “Nauc @ 3 μM” value under setting [5] was “+ (NAUC “+” refers to an observed NAUC <140% of positive control)”.
Regarding `O=C(Nc1ccc2nccnc2c1)[C@H]1[C@H]2CC(F)(F)CN2[C@]2(C(=O)Nc3c(Cl)cc(Cl)cc32)[C@H]1C(=O)O` [Example 147], the “Nauc @ 1 μM” value under setting [4] was “+ (NAUC “+” refers to an observed NAUC <140% of positive control)”. The “Nauc @ 3 μM” value under setting [5] is reported as “+ (NAUC “+” refers to an observed NAUC <140% of positive control)”.
On to `O=C(O)[C@H]1[C@@H](C(=O)N(CC2CCC2)c2cc(Cl)cc(Cl)c2)[C@H]2CC(F)(F)CN2[C@]12C(=O)Nc1c(Cl)cc(Cl)cc12` [Example 148], for which, under setting [4], the “Nauc @ 1 μM” value is listed as “+++ (NAUC “+++” refers to an observed NAUC>170% of positive control)”. Under setting [5], the “Nauc @ 3 μM” value is listed as “+++ (NAUC “+++” refers to an observed NAUC>170% of positive control)”. Moreover, under setting [6], the “Nauc @ 10 μM” value is listed as “+++ (NAUC “+++” refers to an observed NAUC>170% of positive control)”.
`O=C(O)[C@H]1[C@@H](C(=O)N(Cc2ccccc2)c2cc(Cl)cc(Cl)c2)[C@H]2CC(F)(F)CN2[C@]12C(=O)Nc1c(Cl)cc(Cl)cc12` [Example 149]: the “Nauc @ 1 μM” value under setting [4] is recorded as “++ (NAUC “++” refers to an observed NAUC 170-140% of positive control)”. In addition, the “Nauc @ 3 μM” value under setting [5] is on record as “+++ (NAUC “+++” refers to an observed NAUC>170% of positive control)”. Besides, the “Nauc @ 10 μM” value under setting [6] was “+ (NAUC “+” refers to an observed NAUC <140% of positive control)”.
Turning to `O=C(O)[C@H]1[C@@H](C(=O)N(CCO)c2cc(Cl)cc(Cl)c2)[C@H]2CC(F)(F)CN2[C@]12C(=O)Nc1c(Cl)cc(Cl)cc12` [Example 150], the “Nauc @ 1 μM” value under setting [4] was “+ (NAUC “+” refers to an observed NAUC <140% of positive control)”. Moreover, the “Nauc @ 3 μM” value under setting [5] is given as “+++ (NAUC “+++” refers to an observed NAUC>170% of positive control)”.

The values are drawn from patent US20230055237A1, “COMPOUNDS AND METHODS FOR THE TREATMENT OF CYSTIC FIBROSIS” (Flatley Discovery Lab, LLC, priority 2019, published 2023).
